From patent US20240368135A1 (VERTEX PHARMACEUTICALS INCORPORATED, priority 2021, published 2024)
Read-outs that look alike come from different tables or passages of the source.

Target: human NaV 1.8 (Homo sapiens, UniProt Q9Y5Y9)
Assay: E-VIPR assay detecting and measuring NaV inhibition properties
Assay type: cell-based
Details: HEK cells expressing truncated human NaV 1.8
Procedure, shortened: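 Membrane potential was followed by coumarin/oxonol FRET during electrical field stimulation of matrigel-seeded HEK cells carrying truncated human NaV1.8 plus KIR2.1. Dosing used 11 points, 3-fold steps, top 300 nM final, 0.625% DMSO, with or without 25% human serum.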

[1] = no human serum, read-out: IC50 in the E-VIPR Assay

Chain of human NaV 1.8 (Q9Y5Y9 126-399 limits assumed): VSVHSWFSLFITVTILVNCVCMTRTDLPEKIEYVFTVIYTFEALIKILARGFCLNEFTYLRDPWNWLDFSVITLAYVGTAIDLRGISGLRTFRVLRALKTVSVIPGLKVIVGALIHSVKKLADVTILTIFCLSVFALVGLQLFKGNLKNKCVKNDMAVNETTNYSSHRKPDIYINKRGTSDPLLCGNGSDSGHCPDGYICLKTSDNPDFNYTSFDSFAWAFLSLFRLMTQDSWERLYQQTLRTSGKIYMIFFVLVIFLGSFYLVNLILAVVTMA
Chain of human NaV 1.8 (Q9Y5Y9 660-890 limits assumed): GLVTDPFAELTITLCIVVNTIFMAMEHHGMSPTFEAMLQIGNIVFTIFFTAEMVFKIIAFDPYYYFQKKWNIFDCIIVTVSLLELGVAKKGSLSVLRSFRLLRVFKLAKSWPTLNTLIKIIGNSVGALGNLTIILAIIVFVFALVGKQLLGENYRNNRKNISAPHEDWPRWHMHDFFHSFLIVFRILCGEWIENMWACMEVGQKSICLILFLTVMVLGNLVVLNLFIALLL
Chain of human NaV 1.8 (Q9Y5Y9 1148-1722 limits assumed): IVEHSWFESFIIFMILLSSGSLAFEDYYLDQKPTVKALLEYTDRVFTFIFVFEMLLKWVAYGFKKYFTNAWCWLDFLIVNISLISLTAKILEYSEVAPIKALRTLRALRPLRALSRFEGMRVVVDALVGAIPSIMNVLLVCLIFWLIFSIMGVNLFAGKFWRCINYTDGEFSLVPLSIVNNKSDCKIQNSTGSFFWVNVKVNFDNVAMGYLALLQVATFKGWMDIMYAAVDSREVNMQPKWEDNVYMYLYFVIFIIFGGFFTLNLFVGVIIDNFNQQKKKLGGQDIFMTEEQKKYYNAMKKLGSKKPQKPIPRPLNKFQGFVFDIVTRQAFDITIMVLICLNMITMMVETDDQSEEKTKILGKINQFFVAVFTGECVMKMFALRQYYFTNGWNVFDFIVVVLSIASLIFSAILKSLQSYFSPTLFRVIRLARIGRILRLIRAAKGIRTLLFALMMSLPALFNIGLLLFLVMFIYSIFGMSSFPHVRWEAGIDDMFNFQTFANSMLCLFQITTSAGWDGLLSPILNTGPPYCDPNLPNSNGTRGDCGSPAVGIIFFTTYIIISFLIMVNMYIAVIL

Row | SMILES | IC50 [1] | IC50 (in the presence of human serum (compound numbers followed by *), read-out: IC50 in the E-VIPR Assay, performed in the presence of human serum)
1 | COc1c([C@H]2[C@H](C(=O)Nc3ccnc(N4C[C@H]5C[C@H](N5)C4=O)c3)O[C@@](C)(C(F)(F)F)[C@H]2C)ccc(F)c1F (single isomer, unassigned) [Compound 491, rel-(2R*,3S*,4S*,5R*)-3-(3,4-difluoro-2-methoxyphenyl)-4,5-dimethyl-N-(2-((1S,5R)-2-oxo-3,6-diazabicyclo[3.1.1]heptan-3-yl)pyridin-4-yl)-5-(trifluoromethyl)tetrahydrofuran-2-carboxamide] | 10 to 100 nM | 
2 | COc1c([C@H]2[C@H](C(=O)Nc3ccnc(N4C[C@@H]5C[C@@H](N5)C4=O)c3)O[C@@](C)(C(F)(F)F)[C@H]2C)ccc(F)c1F (single isomer, unassigned) [Compound 492, rel-(2R*,3S*,4S*,5R*)-3-(3,4-difluoro-2-methoxyphenyl)-4,5-dimethyl-N-(2-((1R,5S)-2-oxo-3,6-diazabicyclo[3.1.1]heptan-3-yl)pyridin-4-yl)-5-(trifluoromethyl)tetrahydrofuran-2-carboxamide] | 10 to 100 nM | 
3 | COc1c([C@H]2[C@H](C(=O)Nc3ccnc(N4C[C@H]5CC[C@H](N5)C4=O)c3)O[C@@](C)(C(F)(F)F)[C@H]2C)ccc(F)c1F (single isomer, unassigned) [Compound 493, rel-(2R*,3S*,4S*,5R*)-3-(3,4-difluoro-2-methoxyphenyl)-4,5-dimethyl-N-(2-((1S,5R)-2-oxo-3,8-diazabicyclo[3.2.1]octan-3-yl)pyridin-4-yl)-5-(trifluoromethyl)tetrahydrofuran-2-carboxamide] | 10 to 100 nM | 
4 | COc1c([C@H]2[C@H](C(=O)Nc3ccnc(N4C[C@@H]5CC[C@@H](N5)C4=O)c3)O[C@@](C)(C(F)(F)F)[C@H]2C)ccc(F)c1F (single isomer, unassigned) [Compound 494, rel-(2R*,3S*,4S*,5R*)-3-(3,4-difluoro-2-methoxyphenyl)-4,5-dimethyl-N-(2-((1R,5S)-2-oxo-3,8-diazabicyclo[3.2.1]octan-3-yl)pyridin-4-yl)-5-(trifluoromethyl)tetrahydrofuran-2-carboxamide] | 10 to 100 nM | 
5 | CNC1CC(=O)N(c2cc(NC(=O)[C@@H]3O[C@@](C)(C(F)(F)F)[C@@H](C)[C@H]3c3ccc(F)c(F)c3OC)ccn2)C1 (single isomer, unassigned) [Compound 499, rel-(2R*,3S*,4S*,5R*)-3-(3,4-difluoro-2-methoxyphenyl)-4,5-dimethyl-N-(2-(4-(methylamino)-2-oxopyrrolidin-1-yl)pyridin-4-yl)-5-(trifluoromethyl)tetrahydrofuran-2-carboxamide] | 10 to 100 nM | 
6 | CNC1CCN(c2cc(NC(=O)[C@@H]3O[C@@](C)(C(F)(F)F)[C@@H](C)[C@H]3c3ccc(F)c(F)c3OC)ccn2)C1=O (single isomer, unassigned) [Compound 501, rel-(2R*,3S*,4S*,5R*)-3-(3,4-difluoro-2-methoxyphenyl)-4,5-dimethyl-N-(2-(3-(methylamino)-2-oxopyrrolidin-1-yl)pyridin-4-yl)-5-(trifluoromethyl)tetrahydrofuran-2-carboxamide] | 10 to 100 nM | 
7 | COc1c([C@H]2[C@H](C(=O)Nc3ccnc(N4C[C@H]5CC[C@@H](C4=O)N5C)c3)O[C@@](C)(C(F)(F)F)[C@H]2C)ccc(F)c1F (single isomer, unassigned) [Compound 503, rel-(2R*,3S*,4S*,5R*)-3-(3,4-difluoro-2-methoxyphenyl)-4,5-dimethyl-N-(2-((1S,5R)-8-methyl-2-oxo-3,8-diazabicyclo[3.2.1]octan-3-yl)pyridin-4-yl)-5-(trifluoromethyl)tetrahydrofuran-2-carboxamide] | < 10 nM | 
8 | COc1c([C@H]2[C@H](C(=O)Nc3ccnc(N4C[C@@H]5CC[C@H](C4=O)N5C)c3)O[C@@](C)(C(F)(F)F)[C@H]2C)ccc(F)c1F (single isomer, unassigned) [Compound 504, rel-(2R*,3S*,4S*,5R*)-3-(3,4-difluoro-2-methoxyphenyl)-4,5-dimethyl-N-(2-((1R,5S)-8-methyl-2-oxo-3,8-diazabicyclo[3.2.1]octan-3-yl)pyridin-4-yl)-5-(trifluoromethyl)tetrahydrofuran-2-carboxamide] | 10 to 100 nM | 
9 | COc1c([C@H]2[C@H](C(=O)Nc3ccnc(N4CC(N(C)C)CC4=O)c3)O[C@@](C)(C(F)(F)F)[C@H]2C)ccc(F)c1F (single isomer, unassigned) [Compound 505, rel-(2R*,3S*,4S*,5R*)-3-(3,4-difluoro-2-methoxyphenyl)-N-(2-(4-(dimethylamino)-2-oxopyrrolidin-1-yl)pyridin-4-yl)-4,5-dimethyl-5-(trifluoromethyl)tetrahydrofuran-2-carboxamide] | 10 to 100 nM | 
10 | COc1c([C@H]2[C@H](C(=O)Nc3ccnc(N4CCC(N(C)C)C4=O)c3)O[C@@](C)(C(F)(F)F)[C@H]2C)ccc(F)c1F (single isomer, unassigned) [Compound 507, rel-(2R*,3S*,4S*,5R*)-3-(3,4-difluoro-2-methoxyphenyl)-N-(2-(3-(dimethylamino)-2-oxopyrrolidin-1-yl)pyridin-4-yl)-4,5-dimethyl-5-(trifluoromethyl)tetrahydrofuran-2-carboxamide] | 10 to 100 nM | 
11 | COc1c([C@H]2[C@H](C(=O)Nc3ccnc(N4C[C@H]5C[C@@H](C4=O)N5C)c3)O[C@@](C)(C(F)(F)F)[C@H]2C)ccc(F)c1F (single isomer, unassigned) [Compound 509, rel-(2R*,3S*,4S*,5R*)-3-(3,4-difluoro-2-methoxyphenyl)-4,5-dimethyl-N-(2-((1S,5R)-6-methyl-2-oxo-3,6-diazabicyclo[3.1.1]heptan-3-yl)pyridin-4-yl)-5-(trifluoromethyl)tetrahydrofuran-2-carboxamide] | 10 to 100 nM | 
12 | COc1c([C@H]2[C@H](C(=O)Nc3ccnc(N4C[C@@H]5C[C@H](C4=O)N5C)c3)O[C@@](C)(C(F)(F)F)[C@H]2C)ccc(F)c1F (single isomer, unassigned) [Compound 510, rel-(2R*,3S*,4S*,5R*)-3-(3,4-difluoro-2-methoxyphenyl)-4,5-dimethyl-N-(2-((1R,5S)-6-methyl-2-oxo-3,6-diazabicyclo[3.1.1]heptan-3-yl)pyridin-4-yl)-5-(trifluoromethyl)tetrahydrofuran-2-carboxamide] | 10 to 100 nM | 
13 | COCC(O)c1cc(NC(=O)[C@@H]2O[C@@](C)(C(F)(F)F)[C@@H](C)[C@H]2c2ccc(F)c(F)c2OCCN2CCOCC2)ccn1 (single isomer, unassigned) [Compound 595] | 10 to 100 nM | 

The next lines start with the values.

Row | IC50 [1] | IC50 (in the presence of human serum (compound numbers followed by *), read-out: IC50 in the E-VIPR Assay, performed in the presence of human serum) | SMILES
14 | 100 to 1000 nM |  | C[C@H]1[C@@H](c2ccc(F)c(F)c2OC(F)F)[C@H](C(=O)Nc2ccc(CC(C)(C)O)nc2)O[C@@]1(C)C(F)(F)F (single isomer, unassigned) [Compound 462]
15 | ≥ 1000 nM |  | C[C@@H]1[C@H](c2ccc(F)c(F)c2OC(F)F)[C@@H](C(=O)Nc2ccnc(CC(C)(C)O)c2)O[C@]1(C)C(F)(F)F (single isomer, unassigned) [Compound 463]
16 | 10 to 100 nM |  | C[C@H]1[C@@H](c2ccc(F)c(F)c2OC(F)F)[C@H](C(=O)Nc2ccnc(CC(C)(C)O)c2)O[C@@]1(C)C(F)(F)F (single isomer, unassigned) [Compound 464]
17 | < 10 nM |  | COc1c([C@H]2[C@H](C(=O)Nc3ccnc(N4CC(N)CC4=O)c3)O[C@@](C)(C(F)(F)F)[C@H]2C)ccc(F)c1F (single isomer, unassigned) [Compound 495, rel-(2R*,3S*,4S*,5R*)-N-(2-(4-amino-2-oxopyrrolidin-1-yl)pyridin-4-yl)-3-(3,4-difluoro-2-methoxyphenyl)-4,5-dimethyl-5-(trifluoromethyl)tetrahydrofuran-2-carboxamide]
18 | 10 to 100 nM |  | COc1c([C@H]2[C@H](C(=O)Nc3ccnc(N4CC(N)CC4=O)c3)O[C@@](C)(C(F)(F)F)[C@H]2C)ccc(F)c1F (single isomer, unassigned) [Compound 496, rel-(2R*,3S*,4S*,5R*)-N-(2-(4-amino-2-oxopyrrolidin-1-yl)pyridin-4-yl)-3-(3,4-difluoro-2-methoxyphenyl)-4,5-dimethyl-5-(trifluoromethyl)tetrahydrofuran-2-carboxamide]
19 | 10 to 100 nM |  | COc1c([C@H]2[C@H](C(=O)Nc3ccnc(N4CCC(N)C4=O)c3)O[C@@](C)(C(F)(F)F)[C@H]2C)ccc(F)c1F (single isomer, unassigned) [Compound 497, rel-(2R*,3S*,4S*,5R*)-N-(2-(3-amino-2-oxopyrrolidin-1-yl)pyridin-4-yl)-3-(3,4-difluoro-2-methoxyphenyl)-4,5-dimethyl-5-(trifluoromethyl)tetrahydrofuran-2-carboxamide]
20 | 100 to 1000 nM |  | CN=S(C)(=O)c1cc(NC(=O)C2OC(C)(C(F)(F)F)C(C)C2c2ccc(F)c(F)c2OC)ccn1 (single isomer, unassigned) [Compound 529, 3-(3,4-difluoro-2-methoxy-phenyl)-N-[2-(N,S-dimethylsulfonimidoyl)-4-pyridyl]-4,5-dimethyl-5-(trifluoromethyl)tetrahydrofuran-2-carboxamide]
21 | < 10 nM |  | CN=S(C)(=O)c1cc(NC(=O)C2OC(C)(C(F)(F)F)C(C)C2c2ccc(F)c(F)c2OC)ccn1 (single isomer, unassigned) [Compound 530, 3-(3,4-difluoro-2-methoxy-phenyl)-N-[2-(N,S-dimethylsulfonimidoyl)-4-pyridyl]-4,5-dimethyl-5-(trifluoromethyl)tetrahydrofuran-2-carboxamide]
22 |  | ≥ 1000 nM | COc1c([C@@H]2[C@@H](C(=O)Nc3ccnc(C(C)O)c3)O[C@](C)(C(F)(F)F)[C@@H]2C)ccc(F)c1F (single isomer, unassigned) [Compound 531]
23 | < 10 nM |  | COc1c([C@H]2[C@H](C(=O)Nc3ccnc(C(C)O)c3)O[C@@](C)(C(F)(F)F)[C@H]2C)ccc(F)c1F (single isomer, unassigned) [Compound 532]
